Assay results as given in patent US7495104B2, “Quinoline or quinazoline derivatives inhibiting auto-phosphorylation of fibroblast growth factor receptors” (Kirin Beer Kabushiki Kaisha, priority 2001, dated 2009).
pIC50: −log10 of the molar value. Where a name gives a salt, the structure may show the parent alone.

These compounds were tested against Bek (Homo sapiens, UniProt P21802) (assay: Inhibitory activity against Bek-autophosphorylation using ELISA method in OCUM-2MD3 cells). Conditions: 1 hr with compound, read-out: IC50 (concentration necessary for inhibiting 50% of Bek-phosphorylation).
Format: cell-based
In short: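 OCUM-2MD3 human scirrhous gastric cancer cells in 0.1% FCS were exposed to compound for 1 hr at 37° C, then lysed. Phospho-tyrosine proteins were captured with anti-phosphotyrosine antibody, probed with anti-Bek antibody and peroxidase read-out (A450). Positive control (1000 nM) set 0%, untreated 100%; IC50 from multi-level dilutions.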

Chain of Bek (P21802 431-767 limits assumed): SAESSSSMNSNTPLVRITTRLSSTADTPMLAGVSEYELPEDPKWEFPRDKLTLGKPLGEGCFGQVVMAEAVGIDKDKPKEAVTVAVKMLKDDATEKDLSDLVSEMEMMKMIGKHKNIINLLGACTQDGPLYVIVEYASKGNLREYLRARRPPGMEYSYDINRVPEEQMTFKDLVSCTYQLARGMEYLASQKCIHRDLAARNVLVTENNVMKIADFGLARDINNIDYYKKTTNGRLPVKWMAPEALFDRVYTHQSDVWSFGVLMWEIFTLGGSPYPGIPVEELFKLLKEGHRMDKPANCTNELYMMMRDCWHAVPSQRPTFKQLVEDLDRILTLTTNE

Compound	pIC50
CCN(CCO)CCCOc1cc2nccc(Oc3ccc(NC(=O)NCCC(C)(C)C)c(F)c3)c2cc1OC [Compound 344, 1-(3,3-Dimethyl-butyl)-3-[4-(7-{3-[ethyl-(2-hydroxy-ethyl)-amino]-propoxy}-6-methoxy-quinolin-4-yloxy)-2-fluoro-phenyl]-urea]	> 8.00
CCN(CCO)CCCOc1cc2nccc(Oc3ccc(NC(=O)NCCC(C)(C)C)c(Cl)c3)c2cc1OC [Compound 345, 1-[2-Chloro-4-(7-{3-[ethyl-(2-hydroxy-ethyl)-amino]-propoxy}-6-methoxy-quinolin-4-yloxy)-phenyl]-3-(3,3-dimethyl-butyl)-urea]	8.01
COc1cc2c(Oc3ccc(Nc4ccc(C(C)(C)C)cc4)cc3)ccnc2cc1OCCNCC1CCCO1 (centres unmarked) [Compound 347, N1-[4-(Tert-butyl)phenyl]-4-[(6-methoxy-7-{2-[(tetrahydro-2-furanylmethyl)amino]ethoxy}-4-quinolyl)oxy]aniline]	6.45
COc1cc2c(Oc3ccc(Nc4ccc(C(C)(C)C)cc4)cc3)ccnc2cc1OCCN(C)CCO [Compound 348, 2-[(2-{4-[4-(4-Tert-butyl-phenylamino)-phenoxy]-6-methoxy-quinolin-7-yloxy}-ethyl)-methyl-amino]-ethanol hydrochloride]	6.73
COc1cc2c(Oc3ccc(Nc4ccc(C(C)(C)C)cc4)cc3)ccnc2cc1OCCN(CCO)CCO [Compound 349, 2-[(2-{4-[4-(4-Tert-butyl-phenylamino)-phenoxy]-6-methoxy-quinolin-7-yloxy}-ethyl)-(2-hydroxy-ethyl)-amino]-ethanol hydrochloride]	7.02
COc1cc2c(Oc3ccc(Nc4ccc(C(C)(C)C)cc4)cc3)ccnc2cc1OCCN(CC(C)O)CC(C)O (centres unmarked) [Compound 352, 1-[(2-{4-[4-(4-Tert-butyl-phenylamino)-phenoxy]-6-methoxy-quinolin-7-yloxy}-ethyl)-(2-hydroxy-propyl)-amino]-propan-2-ol]	7.26
COc1cc2c(Oc3ccc(NC(=O)NCCC(C)(C)C)cc3)ccnc2cc1OCCNC1(CO)CCCC1 [Compound 359, 1-(3,3-Dimethyl-butyl)-3-(4-{7-[2-(1-hydroxymethyl-cyclopenthylamino)-ethoxy]-6-methoxy-quinolin-4-yloxy}-phenyl)-urea]	6.59
COc1cc2c(Oc3ccc(NC(=O)NCCC(C)(C)C)cc3)ccnc2cc1OCCN(CC(C)O)CC(C)O (centres unmarked) [Compound 360, 1-[4-(7-{2-[Bis-(2-hydroxy-propyl)-amino]-ethoxy}-6-methoxy-quinolin-4-yloxy)-phenyl]-3-(3,3-dimethyl-butyl)-urea]	7.71
COc1cc2c(Oc3ccc(NC(=O)NCCC(C)(C)C)cc3)ccnc2cc1OCCNC(C)CO (centres unmarked) [Compound 361, 1-(3,3-Dimethyl-butyl)-3-(4-{7-[2-(2-hydroxy-1-methyl-ethylamino)-ethoxy]-6-methoxy-quinolin-4-yloxy}-phenyl)-urea]	7.53
COc1cc2c(Oc3ccc(NC(=O)NCCC(C)(C)C)cc3)ccnc2cc1OCCN(CCO)C1CCCCC1 [Compound 362, 1-[4-(7-{2-[Cyclohexyl-(2-hydroxy-ethyl)-amino]-ethoxy}-6-methoxy-quinolin-4-yloxy)-phenyl]-3-(3,3-dimethyl-butyl)-urea]	7.31
COCC(C)NCCOc1cc2nccc(Oc3ccc(Nc4ccc(C(C)(C)C)cc4)cc3)c2cc1OC (centres unmarked) [Compound 363, N1-[4-(Tert-butyl)phenyl]-4-[(6-methoxy-7-{2-[(2-methoxy-1-methylethyl)amino]ethoxy}-4-quinolyl)oxy]aniline]	6.44
COc1cc2c(Oc3ccc(Nc4ccc(C(C)(C)C)cc4)cc3)ccnc2cc1OCCN(CCO)C1CCCCC1 [Compound 364, 2-[(2-{4-[4-(4-Tert-butyl-phenylamino)-phenoxy]-6-methoxy-quinolin-7-yloxy}-ethyl)-cyclohexyl-amino]-ethanol]	6.64
CCCN(CCO)CCOc1cc2nccc(Oc3ccc(Nc4ccc(C(C)(C)C)cc4)cc3)c2cc1OC [Compound 366, 2-[(2-{4-[4-(4-Tert-butyl-phenylamino)-phenoxy]-6-methoxy-quinolin-7-yloxy}-ethyl)-propyl-amino]-ethanol]	6.59
COc1cc2c(Oc3ccc(NC(=O)NCCC(C)(C)C)cc3)ccnc2cc1OCCN(CCO)Cc1ccccc1 [Compound 368, 1-[4-(7-{2-[Benzyl-(2-hydroxy-ethyl)-amino]-ethoxy}-6-methoxy-quinolin-4-yloxy)-phenyl]-3-(3,3-dimethyl-butyl)-urea]	6.81
COc1cc2c(Oc3ccc(NC(=O)NCCC(C)(C)C)cc3)ccnc2cc1OCCN1CCC(CO)CC1 [Compound 371, 1-(3,3-Dimethyl-butyl)-3-(4-{7-[2-(4-hydroxymethyl-piperidin-1-yl)-ethoxy]-6-methoxy-quinolin-4-yloxy}-phenyl)-urea]	> 8.00
COc1cc2c(Oc3ccc(NC(=O)NCCC(C)(C)C)cc3)ccnc2cc1OCCN1CCC(O)CC1 [Compound 373, 1-(3,3-Dimethyl-butyl)-3-(4-{7-[2-(4-hydroxy-piperidin-1-yl)-ethoxy]-6-methoxy-quinolin-4-yloxy}-phenyl)-urea]	> 8.00
COc1cc2nccc(Oc3ccc(NC(=O)NCCC(C)(C)C)cc3Cl)c2cc1OC [Compound 374, 1-[3-Chloro-4-(6,7-dimethoxy-quinolin-4-yloxy)-phenyl]-3-(3,3-dimethyl-butyl)-urea]	7.48

Further lines, results first:

pIC50	Compound
6.53	COc1cc2c(Oc3ccc(Nc4ccc(C(C)(C)C)cc4)cc3Cl)ccnc2cc1OCCN(CCO)CCO [Compound 346, 2-[(2-{4-[4-(4-Tert-butyl-phenylamino)-2-chloro-phenoxy]-6-methoxy-quinolin-7-yloxy}-ethyl)-(2-hydroxy-ethyl)-amino]-ethanol]
6.48	COc1cc2c(Oc3ccc(Nc4ccc(C(C)(C)C)cc4)cc3)ccnc2cc1OCCNC1(CO)CCCC1 [Compound 350, [1-(2-{4-[4-(4-Tert-butyl-phenylamino)-phenoxy]-6-methoxy-quinolin-7-yloxy}-ethylamino)-cyclopenthyl]-methanol]
6.63	CCC(CO)(CO)NCCOc1cc2nccc(Oc3ccc(Nc4ccc(C(C)(C)C)cc4)cc3)c2cc1OC [Compound 351, 2-(2-{4-[4-(4-Tert-butyl-phenylamino)-phenoxy]-6-methoxy-quinolin-7-yloxy}-ethylamino)-2-ethyl-propan-1,3-diol]
6.43	COc1cc2c(Oc3ccc(Nc4ccc(C(C)(C)C)cc4)cc3)ccnc2cc1OCCNC(C)CO (centres unmarked) [Compound 353, 2-(2-{4-[4-(4-Tert-butyl-phenylamino)-phenoxy]-6-methoxy-quinolin-7-yloxy}-ethylamino)-propan-1-ol]
7.42	CCC(CO)(CO)NCCOc1cc2nccc(Oc3ccc(NC(=O)NCCC(C)(C)C)cc3)c2cc1OC [Compound 354, 1-(4-{7-[2-(1,1-Bis-hydroxymethyl-propylamino)-ethoxy]-6-methoxy-quinolin-4-yloxy}-phenyl)-3-(3,3-dimethyl-butyl)-urea]
6.40	COc1cc2nccc(Oc3ccc(Nc4ccc(C(C)(C)C)cc4)cc3)c2cc1OCCN1CCC(CO)CC1 [Compound 355, [1-(2-{4-[4-(4-Tert-butyl-phenylamino)-phenoxy]-7-methoxy-quinolin-6-yloxy}-ethyl)-piperidin-4-yl]-methanol]
6.46	COc1cc2nccc(Oc3ccc(Nc4ccc(C(C)(C)C)cc4)cc3)c2cc1OCCNCCO [Compound 356, 2-(2-{4-[4-(4-Tert-butyl-phenylamino)-phenoxy]-7-methoxy-quinolin-6-yloxy}-ethylamino)-ethanol]
6.67	COc1cc2nccc(Oc3ccc(Nc4ccc(C(C)(C)C)cc4)cc3)c2cc1OCCN(C)CCO [Compound 357, 2-[(2-{4-[4-(4-Tert-butyl-phenylamino)-phenoxy]-7-methoxy-quinolin-6-yloxy}-ethyl)-methyl-amino]-ethanol]
7.29	COc1cc2nccc(Oc3ccc(Nc4ccc(C(C)(C)C)cc4)cc3)c2cc1OCCN(CCO)CCO [Compound 358, 2-[(2-{4-[4-(4-Tert-butyl-phenylamino)-phenoxy]-7-methoxy-quinolin-6-yloxy}-ethyl)-(2-hydroxy-ethyl)-amino]-ethanol]
5.15	COc1cc2c(Oc3ccc(Nc4ccc(C(C)(C)C)cc4)cc3)ccnc2cc1OCCN(CCO)Cc1ccccc1 [Compound 365, 2-[Benzyl-(2-{4-[4-(4-tert-butyl-phenylamino)-phenoxy]-6-methoxy-quinolin-7-yloxy}-ethyl)-amino]-ethanol]
6.33	COc1cc2c(Oc3ccc(Nc4ccc(C(C)(C)C)cc4)cc3)ccnc2cc1OCCN(CCO)C(C)C [Compound 367, 2-[(2-{4-[4-(4-Tert-butyl-phenylamino)-phenoxy]-6-methoxy-quinolin-7-yloxy}-ethyl)-isopropyl-amino]-ethanol]
7.37	CCCN(CCO)CCOc1cc2nccc(Oc3ccc(NC(=O)NCCC(C)(C)C)cc3)c2cc1OC [Compound 369, 1-(3,3-Dimethyl-butyl)-3-[4-(7-{2-[(2-hydroxy-ethyl)-propyl-amino]-ethoxy}-6-methoxy-quinolin-4-yloxy)-phenyl]-urea]
6.89	COc1cc2c(Oc3ccc(NC(=O)NCCC(C)(C)C)cc3)ccnc2cc1OCCN(CCO)C(C)C [Compound 370, 1-(3,3-Dimethyl-butyl)-3-[4-(7-{2-[(2-hydroxy-ethyl)-isopropyl-amino]-ethoxy}-6-methoxy-quinolin-4-yloxy)-phenyl]-urea]
> 8.00	COc1cc2c(Oc3ccc(NC(=O)NCCC(C)(C)C)cc3)ccnc2cc1OCCNCCO [Compound 372, 1-(3,3-Dimethyl-butyl)-3-(4-{7-[2-(2-hydroxy-ethylamino)-ethoxy]-6-methoxy-quinolin-4-yloxy}-phenyl)-urea]
7.55	COc1cc2c(Oc3ccc(NC(=O)NCCC(C)(C)C)cc3)ccnc2cc1OCC(=O)N1CCOCC1 [Compound 375, 1-(3,3-Dimethyl-butyl)-3-{4-[6-methoxy-7-(2-morpholin-4-yl-2-oxo-ethoxy)-quinolin-4-yloxy]-phenyl}-urea]
